Experimental data as given in ChEMBL document CHEMBL5465560, “Selectivity Literature for EUbOPEN Chemogenomic Library” (2024).

How the values were obtained:
[1] = target: Glycogen synthase kinase-3 alpha (Homo sapiens, UniProt P49840); assay: Selectivity interaction (Ambit KINOMEscan and KiNATiv profiling in Jurkat cells) EUB0000090b GSK3A; type: cell-based; conditions: at 1 µM
[2] = target: T1, Serine/threonine-protein kinase Chk1 (Homo sapiens) (UniProt O14757); assay: Selectivity interaction (KinomeScan (DiscoverX)) EUB0000618a CHEK1; conditions: at 10 µM
T1 sequence (whole entry): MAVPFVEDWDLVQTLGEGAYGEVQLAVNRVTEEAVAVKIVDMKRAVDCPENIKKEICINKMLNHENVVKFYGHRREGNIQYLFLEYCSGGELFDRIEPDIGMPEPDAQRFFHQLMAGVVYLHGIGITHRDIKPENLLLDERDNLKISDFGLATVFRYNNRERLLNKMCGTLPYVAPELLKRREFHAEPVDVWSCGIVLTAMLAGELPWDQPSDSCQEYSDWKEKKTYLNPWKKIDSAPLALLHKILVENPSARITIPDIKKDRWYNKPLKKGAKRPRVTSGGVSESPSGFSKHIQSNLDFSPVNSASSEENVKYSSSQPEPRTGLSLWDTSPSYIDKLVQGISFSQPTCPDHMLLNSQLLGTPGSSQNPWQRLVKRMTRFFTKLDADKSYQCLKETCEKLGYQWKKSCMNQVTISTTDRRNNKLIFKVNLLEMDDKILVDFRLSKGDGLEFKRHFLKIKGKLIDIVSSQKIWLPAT

[3] = target: Phosphatidylinositol 4-phosphate 5-kinase type-1 gamma (Homo sapiens) (UniProt O60331); assay: Selectivity interaction (KinomeScan (DiscoverX)) EUB0000618a PIP5K1C; conditions: at 10 µM
[4] = target: T2, Myotonin-protein kinase (Homo sapiens) (UniProt Q09013); assay: Selectivity interaction (KinomeScan (DiscoverX)) EUB0000607a DMPK; conditions: at 10 µM
T2 sequence (whole entry): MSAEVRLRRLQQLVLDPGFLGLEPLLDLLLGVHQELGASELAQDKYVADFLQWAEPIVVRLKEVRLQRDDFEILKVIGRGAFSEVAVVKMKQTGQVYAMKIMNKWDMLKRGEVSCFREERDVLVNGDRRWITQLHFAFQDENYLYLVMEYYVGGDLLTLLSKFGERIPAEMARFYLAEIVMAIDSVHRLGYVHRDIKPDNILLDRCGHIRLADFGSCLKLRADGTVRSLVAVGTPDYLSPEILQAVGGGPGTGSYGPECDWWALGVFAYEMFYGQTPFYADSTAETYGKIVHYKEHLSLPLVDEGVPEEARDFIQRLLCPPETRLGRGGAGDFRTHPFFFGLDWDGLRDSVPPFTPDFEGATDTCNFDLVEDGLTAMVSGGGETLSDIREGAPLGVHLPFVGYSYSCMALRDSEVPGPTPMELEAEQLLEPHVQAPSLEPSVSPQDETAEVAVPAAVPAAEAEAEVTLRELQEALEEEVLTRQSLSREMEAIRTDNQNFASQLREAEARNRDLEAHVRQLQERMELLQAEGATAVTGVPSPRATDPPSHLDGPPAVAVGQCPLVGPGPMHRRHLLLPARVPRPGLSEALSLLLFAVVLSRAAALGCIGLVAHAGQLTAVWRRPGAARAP

[5] = target: Serine/threonine-protein kinase RIO2 (Homo sapiens) (UniProt Q9BVS4); assay: Selectivity interaction (KinomeScan (DiscoverX)) EUB0000607a RIOK2; conditions: at 10 µM
[6] = target: T3, Serine/threonine-protein kinase Sgk1 (Homo sapiens) (UniProt O00141); assay: Selectivity interaction (SelectScreen profiling (Invitrogen)) EUB0000607a SGK1; conditions: at 2 µM
T3 sequence (whole entry): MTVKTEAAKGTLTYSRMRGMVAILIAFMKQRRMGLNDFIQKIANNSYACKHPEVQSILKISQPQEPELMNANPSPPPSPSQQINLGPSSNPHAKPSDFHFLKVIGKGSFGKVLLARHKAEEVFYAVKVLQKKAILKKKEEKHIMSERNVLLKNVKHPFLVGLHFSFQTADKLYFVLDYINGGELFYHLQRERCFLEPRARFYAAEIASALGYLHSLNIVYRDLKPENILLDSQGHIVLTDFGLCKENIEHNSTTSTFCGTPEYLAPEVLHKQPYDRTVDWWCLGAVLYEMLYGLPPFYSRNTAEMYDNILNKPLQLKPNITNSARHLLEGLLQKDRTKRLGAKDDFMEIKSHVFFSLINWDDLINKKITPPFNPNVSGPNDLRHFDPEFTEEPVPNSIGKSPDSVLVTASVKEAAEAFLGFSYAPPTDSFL

[7] = target: Serine/threonine-protein kinase 3 (Homo sapiens, UniProt Q13188); assay: Selectivity interaction (ADP-Glo kinase assay) EUB0001619a STK3
[8] = target: Vascular endothelial growth factor receptor 1 (Homo sapiens) (UniProt P17948); assay: Selectivity interaction (KinomeScan (DiscoverX)) EUB0000045b FLT1
[9] = target: Tyrosine-protein kinase ABL1 (Homo sapiens, UniProt P00519); assay: Selectivity interaction (Kinase panel (Invitrogen)) EUB0000639a ABL1; conditions: at 200 nM
[10] = target: Polycomb protein EED (Homo sapiens) (UniProt O75530); assay: Selectivity interaction (PWWP, WD40, and Tudor domain panel (DSLS measurements, literature)) EUB0000270b EED
[11] = target: Protein arginine N-methyltransferase 1 (Homo sapiens, UniProt Q99873); assay: Selectivity interaction (Transferase panel (protein, RNA, and DNA methyltransferases. and EP300 (acetyltransferase))) EUB0000270b PRMT1
[12] = target: Transcription intermediary factor 1-alpha (Homo sapiens) (UniProt O15164); assay: Selectivity interaction (Bromodomain panel (DSF asssay)) EUB0000270b TRIM24
[13] = target: T4, Dual specificity mitogen-activated protein kinase kinase 4 (Homo sapiens) (UniProt P45985); assay: Selectivity interaction (KinomeScan (DiscoverX)) EUB0000229b MAP2K4; conditions: at 10 µM
T4 sequence (whole entry): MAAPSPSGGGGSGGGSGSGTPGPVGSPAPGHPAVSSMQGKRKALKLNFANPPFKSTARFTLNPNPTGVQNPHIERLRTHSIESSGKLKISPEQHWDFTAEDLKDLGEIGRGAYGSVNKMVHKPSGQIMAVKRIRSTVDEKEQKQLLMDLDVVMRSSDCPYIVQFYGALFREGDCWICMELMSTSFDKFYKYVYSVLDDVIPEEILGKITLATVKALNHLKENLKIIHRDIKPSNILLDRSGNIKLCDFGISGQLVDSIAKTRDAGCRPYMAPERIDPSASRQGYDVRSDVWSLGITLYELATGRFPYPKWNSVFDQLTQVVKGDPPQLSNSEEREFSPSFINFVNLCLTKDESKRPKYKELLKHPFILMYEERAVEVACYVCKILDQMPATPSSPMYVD

Progesterone receptor = Progesterone receptor (Homo sapiens, UniProt P06401); assay: Selectivity interaction (Progesteron receptor agonist/antagonist FRET assay, human recombinant) EUB0000877a PGR
[14] = target: Dual specificity mitogen-activated protein kinase kinase 1 (Homo sapiens, UniProt Q02750); assay: Selectivity interaction (Rxn Biology Kinase assay) EUB0001632a MAP2K1; conditions: at 10 µM

Vascular endothelial growth factor receptor 1 (Homo sapiens), sequence (P17948 whole entry): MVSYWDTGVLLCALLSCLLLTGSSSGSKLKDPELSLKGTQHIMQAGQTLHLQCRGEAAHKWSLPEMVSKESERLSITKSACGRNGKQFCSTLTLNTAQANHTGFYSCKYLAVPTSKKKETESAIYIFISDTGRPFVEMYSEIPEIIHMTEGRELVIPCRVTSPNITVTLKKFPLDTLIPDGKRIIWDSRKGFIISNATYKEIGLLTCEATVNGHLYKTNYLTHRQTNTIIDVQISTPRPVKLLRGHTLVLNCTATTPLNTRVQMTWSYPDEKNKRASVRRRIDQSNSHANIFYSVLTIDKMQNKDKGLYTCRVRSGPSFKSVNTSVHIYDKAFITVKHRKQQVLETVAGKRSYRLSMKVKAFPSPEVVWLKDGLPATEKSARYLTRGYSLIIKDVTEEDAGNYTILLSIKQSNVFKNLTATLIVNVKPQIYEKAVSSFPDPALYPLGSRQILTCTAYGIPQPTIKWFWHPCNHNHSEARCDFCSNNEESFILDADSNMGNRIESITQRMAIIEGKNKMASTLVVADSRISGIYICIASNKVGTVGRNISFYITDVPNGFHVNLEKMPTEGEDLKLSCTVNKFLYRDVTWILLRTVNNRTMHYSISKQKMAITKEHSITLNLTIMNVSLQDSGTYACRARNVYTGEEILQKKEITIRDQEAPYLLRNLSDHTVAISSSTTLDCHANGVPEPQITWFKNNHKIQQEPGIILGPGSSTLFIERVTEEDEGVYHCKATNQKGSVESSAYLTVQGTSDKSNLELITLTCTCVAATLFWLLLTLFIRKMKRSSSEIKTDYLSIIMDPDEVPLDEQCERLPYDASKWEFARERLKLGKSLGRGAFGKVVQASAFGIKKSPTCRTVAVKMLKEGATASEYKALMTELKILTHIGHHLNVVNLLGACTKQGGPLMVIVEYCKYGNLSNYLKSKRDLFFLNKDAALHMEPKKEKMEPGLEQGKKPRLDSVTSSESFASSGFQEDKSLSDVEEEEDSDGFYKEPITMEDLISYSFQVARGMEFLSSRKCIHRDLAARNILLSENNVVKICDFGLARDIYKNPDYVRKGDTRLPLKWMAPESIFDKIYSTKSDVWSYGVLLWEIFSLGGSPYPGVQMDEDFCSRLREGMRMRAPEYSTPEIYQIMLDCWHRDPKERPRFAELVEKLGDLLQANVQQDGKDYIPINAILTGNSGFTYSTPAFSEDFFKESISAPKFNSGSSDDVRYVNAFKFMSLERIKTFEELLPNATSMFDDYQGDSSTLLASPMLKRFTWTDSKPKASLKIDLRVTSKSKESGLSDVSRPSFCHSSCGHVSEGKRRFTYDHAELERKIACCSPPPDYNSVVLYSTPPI
Protein arginine N-methyltransferase 1, sequence (Q99873 whole entry, looked up): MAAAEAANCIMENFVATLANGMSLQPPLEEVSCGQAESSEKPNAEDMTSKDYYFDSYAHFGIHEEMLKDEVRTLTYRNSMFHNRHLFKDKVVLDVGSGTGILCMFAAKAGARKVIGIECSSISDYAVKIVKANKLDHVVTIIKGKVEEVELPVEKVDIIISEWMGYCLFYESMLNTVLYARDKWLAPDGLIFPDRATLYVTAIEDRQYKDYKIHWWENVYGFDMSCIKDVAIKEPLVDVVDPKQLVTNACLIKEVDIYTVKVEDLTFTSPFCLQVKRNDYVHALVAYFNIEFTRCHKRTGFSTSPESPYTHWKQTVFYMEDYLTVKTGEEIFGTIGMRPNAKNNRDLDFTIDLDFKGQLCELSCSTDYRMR
Phosphatidylinositol 4-phosphate 5-kinase type-1 gamma (Homo sapiens), sequence (O60331 whole entry): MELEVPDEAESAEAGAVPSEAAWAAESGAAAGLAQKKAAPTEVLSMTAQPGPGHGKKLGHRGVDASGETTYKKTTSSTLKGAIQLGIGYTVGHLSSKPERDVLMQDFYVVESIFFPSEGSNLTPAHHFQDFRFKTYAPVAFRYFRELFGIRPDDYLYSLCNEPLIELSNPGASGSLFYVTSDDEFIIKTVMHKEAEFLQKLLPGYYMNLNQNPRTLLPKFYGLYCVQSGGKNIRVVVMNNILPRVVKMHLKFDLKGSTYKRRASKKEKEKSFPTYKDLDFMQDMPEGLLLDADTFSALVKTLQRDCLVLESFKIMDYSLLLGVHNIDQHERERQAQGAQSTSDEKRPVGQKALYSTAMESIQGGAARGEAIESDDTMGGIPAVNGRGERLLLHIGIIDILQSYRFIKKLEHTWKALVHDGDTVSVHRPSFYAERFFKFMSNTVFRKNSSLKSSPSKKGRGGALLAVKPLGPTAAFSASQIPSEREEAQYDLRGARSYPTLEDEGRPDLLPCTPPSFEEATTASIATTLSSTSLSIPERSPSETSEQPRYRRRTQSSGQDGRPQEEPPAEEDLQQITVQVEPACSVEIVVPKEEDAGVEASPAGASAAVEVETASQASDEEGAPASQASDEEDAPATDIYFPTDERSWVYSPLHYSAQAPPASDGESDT
Progesterone receptor, sequence (P06401 whole entry): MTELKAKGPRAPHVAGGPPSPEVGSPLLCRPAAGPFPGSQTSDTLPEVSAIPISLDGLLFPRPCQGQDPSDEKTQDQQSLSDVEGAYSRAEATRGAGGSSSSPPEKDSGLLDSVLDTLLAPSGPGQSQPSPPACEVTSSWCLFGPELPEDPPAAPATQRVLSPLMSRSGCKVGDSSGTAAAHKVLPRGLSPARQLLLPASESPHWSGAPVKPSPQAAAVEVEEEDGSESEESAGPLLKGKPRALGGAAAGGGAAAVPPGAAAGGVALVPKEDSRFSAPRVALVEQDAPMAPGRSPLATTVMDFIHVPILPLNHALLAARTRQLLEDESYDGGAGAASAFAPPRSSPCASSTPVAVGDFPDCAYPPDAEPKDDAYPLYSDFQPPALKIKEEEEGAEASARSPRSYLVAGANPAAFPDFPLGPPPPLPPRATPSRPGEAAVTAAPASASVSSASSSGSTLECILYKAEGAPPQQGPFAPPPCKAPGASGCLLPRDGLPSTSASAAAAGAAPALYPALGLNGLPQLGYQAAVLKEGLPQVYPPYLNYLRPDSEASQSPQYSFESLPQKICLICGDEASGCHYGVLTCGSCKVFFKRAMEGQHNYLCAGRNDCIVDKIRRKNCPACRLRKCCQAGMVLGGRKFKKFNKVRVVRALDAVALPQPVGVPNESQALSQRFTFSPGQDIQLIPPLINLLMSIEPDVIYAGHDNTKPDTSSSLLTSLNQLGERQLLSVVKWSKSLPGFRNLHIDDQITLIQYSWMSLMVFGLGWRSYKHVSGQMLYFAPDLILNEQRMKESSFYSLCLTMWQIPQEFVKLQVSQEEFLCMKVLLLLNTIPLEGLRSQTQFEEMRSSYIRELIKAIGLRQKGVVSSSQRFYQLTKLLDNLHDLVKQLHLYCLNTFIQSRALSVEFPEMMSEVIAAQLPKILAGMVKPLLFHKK
Tyrosine-protein kinase ABL1, sequence (P00519 whole entry, the tested form may be a part): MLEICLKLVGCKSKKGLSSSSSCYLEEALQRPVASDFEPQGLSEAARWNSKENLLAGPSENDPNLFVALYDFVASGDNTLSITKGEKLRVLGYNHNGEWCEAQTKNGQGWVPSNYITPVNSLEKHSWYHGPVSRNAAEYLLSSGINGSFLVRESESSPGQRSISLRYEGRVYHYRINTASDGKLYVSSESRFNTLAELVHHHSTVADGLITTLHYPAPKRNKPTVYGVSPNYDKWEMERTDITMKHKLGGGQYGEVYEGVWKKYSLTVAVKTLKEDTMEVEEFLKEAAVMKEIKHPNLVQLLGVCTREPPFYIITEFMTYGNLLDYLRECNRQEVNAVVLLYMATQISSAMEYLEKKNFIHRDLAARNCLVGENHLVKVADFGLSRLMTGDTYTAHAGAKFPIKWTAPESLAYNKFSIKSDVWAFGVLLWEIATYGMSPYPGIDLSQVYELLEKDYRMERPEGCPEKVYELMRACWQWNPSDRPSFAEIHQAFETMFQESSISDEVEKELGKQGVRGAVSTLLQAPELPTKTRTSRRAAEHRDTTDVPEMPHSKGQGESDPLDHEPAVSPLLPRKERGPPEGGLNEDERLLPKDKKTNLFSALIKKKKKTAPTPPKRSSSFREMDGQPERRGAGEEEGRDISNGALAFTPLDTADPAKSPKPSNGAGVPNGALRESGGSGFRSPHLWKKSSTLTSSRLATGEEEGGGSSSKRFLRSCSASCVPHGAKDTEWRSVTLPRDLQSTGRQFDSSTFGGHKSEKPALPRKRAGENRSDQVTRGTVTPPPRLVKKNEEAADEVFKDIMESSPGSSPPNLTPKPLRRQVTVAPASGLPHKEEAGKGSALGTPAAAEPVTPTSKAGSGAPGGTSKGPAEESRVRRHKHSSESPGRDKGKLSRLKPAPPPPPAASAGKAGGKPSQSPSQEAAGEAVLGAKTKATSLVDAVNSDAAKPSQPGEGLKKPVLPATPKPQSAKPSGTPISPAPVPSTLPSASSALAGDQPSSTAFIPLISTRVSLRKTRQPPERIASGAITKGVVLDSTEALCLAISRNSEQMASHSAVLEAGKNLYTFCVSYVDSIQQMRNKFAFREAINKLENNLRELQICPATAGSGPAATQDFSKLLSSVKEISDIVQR
Polycomb protein EED (Homo sapiens), sequence (O75530 2-441 limits assumed): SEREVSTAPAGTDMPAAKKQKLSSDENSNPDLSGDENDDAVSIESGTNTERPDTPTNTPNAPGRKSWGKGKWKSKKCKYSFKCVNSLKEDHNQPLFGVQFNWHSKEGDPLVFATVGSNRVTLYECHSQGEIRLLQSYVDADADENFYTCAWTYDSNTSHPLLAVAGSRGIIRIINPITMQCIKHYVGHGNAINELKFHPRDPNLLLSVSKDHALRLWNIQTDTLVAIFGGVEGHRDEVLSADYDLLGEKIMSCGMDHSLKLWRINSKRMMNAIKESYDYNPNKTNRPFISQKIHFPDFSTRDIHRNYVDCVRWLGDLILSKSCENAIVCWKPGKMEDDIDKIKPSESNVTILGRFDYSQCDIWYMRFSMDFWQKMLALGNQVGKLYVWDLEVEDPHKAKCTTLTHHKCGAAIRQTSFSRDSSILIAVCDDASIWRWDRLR

CN(C)C/C=C/C(=O)Nc1ccc(C(=O)N2CCCC(Nc3ncc(Cl)c(-c4c[nH]c5ccccc45)n3)C2)cc1 (configuration not stated)
% of control [1]: 5.7%

O[C@H]1CC[C@H](Nc2ncc3nc(Nc4c(F)cc(F)cc4F)n([C@H]4CCOC4)c3n2)CC1
% of control [2]: 97% | % of control [3]: 76%

CNC(=O)Nc1ccc(-c2nc(N3CC4CCC(C3)O4)c3cnn(C4CCC5(CC4)OCCO5)c3n2)cc1
% of control [4]: 83% | % of control [5]: 90% | % of inhibition [6]: -2%

N#Cc1cccc(-c2c[nH]c3ncnc(N4CCOCC4)c23)c1
IC50 [7]: 76 nM

C=CC(=O)Nc1cc(-n2c(=O)ccc3cnc4ccc(-c5ccc(NS(C)(=O)=O)cc5)cc4c32)ccc1C
% of control ([8]; at 1 µM): 100% | % of control ([8]; at 10 µM): 100%

CC[C@@H]1[C@H](F)C(=O)N[C@@H]1COc1nccc2cc(C(N)=O)c(OC)cc12 [ZIMLOVISERTIB]
% of inhibition [9]: 2.34%

Cc1cc(CN)cc(C)c1-c1ncn(C)c1-c1cncn1C
dTagg [10]: 0.2 K | % activity ([11]; at 1 µM): > 90% | % activity ([11]; at 10 µM): > 80% | dTM [12]: -0.53 K

COc1cc(N(C)c2ccnc3ccc(C(F)(F)F)cc23)cc(OC)c1OC
% binding [13]: 100%

CCC(=O)N1CC[C@H](Nc2ncnc3c2CN(c2cnc(OC)c(C(F)(F)F)c2)CC3)C1 [LENIOLISIB]
IC50 (Progesterone receptor): > 30000 nM

Cn1cc(-n2cnc3c(NCc4nc5cc(Cl)c(Cl)cc5[nH]4)nc(N4CCOCC4)nc32)cn1
% of inhibition [14]: 4.54%
